Data as given in US10112943B2, “Substituted imidazoles as gamma secretase modulators” (Janssen Pharmaceutica NV, priority 2012, dated 2018).

What was measured:
[1] = target: T1, γ-secretase (Homo sapiens, UniProt P49768); assay: Screening for γ-secretase-modulating activity: Aβtotal in cell supernatant (Alphalisa sandwich immuno-assay); type: cell-based; conditions: SKNBE2 human neuroblastoma cells carrying hAPP 695-wild type, overnight incubation
T1 construct: endogenous in cells; host or cells: SKNBE2 human neuroblastoma cells carrying hAPP 695 wild type
Description: (§1) A) Screening of the Compounds of the Invention for γ-Secretase-Modulating Activity
(§2) Screening was carried out using SKNBE2 human neuroblastoma cells carrying the hAPP 695-wild type, grown in Dulbecco's Modified Eagle's Medium/Nutrient mixture F-12 (DMEM/NUT-mix F-12) (HAM) provided by Invitrogen (cat no. 10371-029) containing 5% Serum/Fe supplemented with 1% non-essential amino acids, 1-glutamine 2 mM, Hepes 15 mM, penicillin 50 U/ml (units/ml) and streptomycin 50 μg/ml. Cells were grown to near confluency.
(§3) The screening was performed using a modification of the assay as described in Citron et al (1997) Nature Medicine 3: 67. Briefly, cells were plated in a 384-well plate at 10^4 cells/well in Ultraculture (Lonza, BE12-725F) supplemented with 1% glutamine (Invitrogen, 25030-024), 1% non-essential amino acid (NEAA), penicillin 50 U/ml en streptomycin 50 μg/ml in the presence of test compound at different test concentrations. The cell/compound mixture was incubated overnight at 37° C., 5% CO2. The next day the media were assayed by two sandwich immuno-assays, for Aβ42 and Aβtotal.
(§4) Aβtotal and Aβ42 concentrations were quantified in the cell supernatant using the Aphalisa technology (Perkin Elmer). Alphalisa is a sandwich assay using biotinylated antibody attached to streptavidin coated donorbeads and antibody conjugated to acceptor beads. In the presence of antigen, the beads come into close proximity. The excitation of the donor beads provokes the release of singlet oxygen molecules that trigger a cascade of energy transfer in the acceptor beads, resulting in light emission. To quantify the amount of Aβ42 in the cell supernatant, monoclonal antibody specific to the C-terminus of Aβ42 (JRF/cAβ42/26) was coupled to the receptor beads and biotinylated antibody specific to the N-terminus of Aβ (JRF/AβN/25) was used to react with the donor beads. To quantify the amount of Aβtotal in the cell supernatant, monoclonal antibody specific to the N-terminus of Aβ (JRF/AβN/25) was coupled to the receptor beads and biotinylated antibody specific to the mid region of Aβ (biotinylated 4G8) was used to react with the donor beads.
(§5) The sigmoidal dose response curves were analyzed using non-linear regression analysis with percentage of the control plotted against the log concentration of the compound. A 4-parameter equation was used to determine the IC50.

[2] = target: T1, γ-secretase; assay: Screening for γ-secretase-modulating activity: Aβ42 in cell supernatant (Alphalisa sandwich immuno-assay); type: cell-based; conditions: SKNBE2 human neuroblastoma cells carrying hAPP 695-wild type, overnight incubation
Description: as §1, §2, §3, §4
To obtain the values reported in Table 3, the data are calculated as percentage of the maximum amount of amyloid Beta 42 measured in the absence of the test compound.
as §5

[3] = system: Aβ42; assay: In vivo efficacy: brain levels of soluble Aβ42 in non-transgenic rodents (MSD electrochemiluminescence); parameters: species or system mouse; conditions: dose 30 mg/kg oral dosing, soluble fraction, untreated animals (Ctrl) set at 100, typical protocol 4 h after dose
Description: To determine whether acute administration of an Aβ42 lowering agent would reduce Aβ42 levels in vivo, non-transgenic rodents, e.g. mice or rats were used. Animals treated with the Aβ42 lowering agent were examined and compared to those untreated or treated with vehicle and brain levels of soluble Aβ42, Aβ40, Aβ38, and Aβ37 were quantitated by Meso Scale Discovery's (MSD) electrochemiluminescence detection technology. Treatment periods varied from hours (h) to days and were adjusted based on the results of the Aβ42 lowering once a time course of onset of effect could be established.
A typical protocol for measuring Aβ42 lowering in vivo is shown but it is only one of many variations that could be used to optimize the levels of detectable Aβ. […] After 4 h, the animals were sacrificed and Aβ42 levels were analysed.
Blood was collected by decapitation and exsanguinations in EDTA-treated collection tubes. […] The left hemisphere was stored at −18° C. for quantitative analysis of test compound levels. […]
Mouse brains from non-transgenic animals were resuspended in 8 volumes of 0.4% DEA (diethylamine)/50 mM NaCl containing protease inhibitors (Roche-11873580001 or 04693159001) per gram of tissue, e.g. for 0.158 g brain, add 1.264 ml of 0.4% DEA. […] Nine parts of supernatant were neutralized with 1 part 0.5 M Tris-HCl pH 6.8 and used to quantify Aβ. […]

melting point: 254.8 °C
IC50 [1]: > 10000 nM
IC50 [2]: 50 nM
SMILES: Cc1cn(-c2ccc3n(c2=O)C[C@@H]2CC[C@@H](Cc4cc(C(F)(F)F)cc(C(F)(F)F)c4)N2C3=O)cn1 (single isomer, unassigned) [Compound 4, 3-[[3,5-bis(trifluoromethyl)phenyl]methyl]-2,3,11,11a-tetrahydro-8-(4-methyl-1H-imidazol-1-yl)-1H-pyrido[1,2-a]pyrrolo[1,2-d]pyrazine-5,9-dione ((3S, 11aS) or (3R, 11aR))]
Aβ42 (% vs Ctrl) _Mean [3]: 47 % vs Ctrl
